Where a name gives a salt, the structure may show the parent alone. Bounds are passed on as bounds.

In the case of `Cc1c(OCC(=O)OCc2ccccc2)ccc(C(=O)CN2Cc3cc(C(=N)NO)ccc3C2=O)c1O` (hydrate or solvate) [Example 56, (3-Hydroxy-4-{2-[5-(N-hydroxycarbamimidoyl)-1-oxo-1,3-dihydro-isoindol-2-yl]-acetyl}-2-methyl-phenoxy)-acetic acid benzyl ester], the melting point (commonly the temperature, or range, at which the solid turns liquid) worked out at 200 °C. The compound `CC(C)COC(=O)COc1ccc(C(=O)CN2Cc3cc(C(=N)NC(=O)OCc4ccccc4)ccc3C2=O)cc1` [Example 13, (4-{2-[5-(Benzyloxycarbonylamino-imino-methyl)-1-oxo-1,3-dihydro-isoindol-2-yl]-acetyl}-phenoxy)-acetic acid isobutyl ester] came in with a melting point of 139 to 140 °C. Next, `CCOC(=O)COc1ccc(C(=O)CN2Cc3cc(C(=N)NO)ccc3C2=O)cc1Cl` [Example 32, (2-Chloro-4-{2-[5-(N-hydroxycarbamimidoyl)-1-oxo-1,3-dihydro-isoindol-2-yl]-acetyl}-phenoxy)-acetic acid ethyl ester]: 201 to 202 °C.

Consider `CCOC(=O)COc1cc(O)c(C(=O)CN2Cc3cc(C(=N)NO)ccc3C2=O)cc1C(C)(C)C` [Example 52, (2-tert-Butyl-5-hydroxy-4-{2-[5-(N-hydroxycarbamimidoyl)-1-oxo-1,3-dihydro-isoindol-2-yl]-acetyl}-phenoxy)-acetic acid ethyl ester], for which the melting point lay within 177 to 178 °C. Take `CCOC(=O)COC1CCN(C(=O)CN2Cc3cc(C(=N)N)ccc3C2=O)CC1` (as salt: salt) (hydrate or solvate) [Example 71, (1-{2-[5-Carbamimidoyl-1-oxo-1,3-dihydro-isoindol-2-yl]-acetyl}-piperidin-4-yloxy)-acetic acid ethyl ester]: the melting point was in the range of 189 to 190 °C. As to `CC(C)COC(=O)NC(=N)c1ccc2c(c1)CN(CC(=O)c1ccc(OCC(=O)OCc3ccccc3)cc1)C2=O` (hydrate or solvate) [Example 19, (4-{2-[5-(Imino-isobutoxycarbonylamino-methyl)-1-oxo-1,3-dihydro-isoindol-2-yl]-acetyl}-phenoxy)-acetic acid benzyl ester], the melting point is 162 to 163 °C. For `CCCc1c(OCC(=O)OCc2ccccc2)ccc(C(=O)CN2Cc3cc(C(=N)NO)ccc3C2=O)c1O` [Example 59, (3-Hydroxy-4-{2-[5-(N-hydroxycarbamimidoyl)-1-oxo-1,3-dihydro-isoindol-2-yl]-acetyl}-2-propyl-phenoxy)-acetic acid benzyl ester], the melting point was 199 to 200 °C. In turn, `CCOC(=O)COc1ccc(C(=O)CN2Cc3cc(C(=N)NO)ccc3C2=O)c(OC)c1` [Example 45, (4-{2-[5-(N-Hydroxycarbamimidoyl)-1-oxo-1,3-dihydro-isoindol-2-yl]-acetyl}-3-methoxy-phenoxy)-acetic acid ethyl ester] registered a melting point of 163 to 165 °C.

With `CCOC(=O)COc1ccc(C(=O)CN2Cc3cc(C(=N)NC(=O)OCC(C)C)ccc3C2=O)cc1N(CC(=O)OCC)S(C)(=O)=O` (hydrate or solvate) [Example 39, (2-{Ethoxycarbonylmethyl-methanesulfonyl-amino}-4-{2-[5-(imino-isobutoxycarbonylamino-methyl)-1-oxo-1,3-dihydro-isoindol-2-yl]-acetyl}-phenoxy)-acetic acid ethyl ester], the melting point fell in the range of 80 to 82 °C.

Regarding `CCOC(=O)COC1CCN(C(=O)CN2Cc3cc(C(=N)NC(=O)OC(C)(C)C)ccc3C2=O)CC1` (hydrate or solvate) [Example 72, (1-{2-[5-(tert-Butoxycarbonylamino-imino-methyl)-1-oxo-1,3-dihydro-isoindol-2-yl]-acetyl}-piperidin-4-yloxy)-acetic acid ethyl ester], the melting point was in the range of 83 to 85 °C.

In the case of `CCOC(=O)COc1ccc(C(=O)CN2Cc3cc(C(=N)N)ccc3C2=O)cc1S(=O)(=O)CC` (as salt: salt) (hydrate or solvate) [Example 35, (4-{2-[5-Carbamimidoyl-1-oxo-1,3-dihydro-isoindol-2-yl]-acetyl}-2-ethanesulfonyl-phenoxy)-acetic acid ethyl ester], the melting point fell in the range of 174 to 175 °C. On to `CCOC(=O)COc1ccc(C(=O)CN2Cc3cc(C(=N)NC(=O)OCC(C)C)ccc3C2=O)cc1Cl` [Example 31, (2-Chloro-4-{2-[5-(imino-isobutoxycarbonylamino-methyl)-1-oxo-1,3-dihydro-isoindol-2-yl]-acetyl}-phenoxy)-acetic acid ethyl ester], for which the melting point lay in the range of 178 to 179 °C.

`CC(C)COC(=O)COc1ccc(C(=O)CN2Cc3cc(C(=N)NO)ccc3C2=O)cc1` [Example 15, (4-{2-[5-(N-Hydroxycarbamimidoyl)-1-oxo-1,3-dihydro-isoindol-2-yl]-acetyl}-phenoxy)-acetic acid isobutyl ester] showed a melting point of 153 to 154 °C.

With `N=C(N)c1ccc2c(c1)CN(CC(=O)c1ccc(OCC(=O)O)cc1)C2=O` (as salt: hydrochloride) (hydrate or solvate) [Example 17, (4-{2-[5-Carbamimidoyl-1-oxo-1,3-dihydro-isoindol-2-yl]-acetyl}-phenoxy)-acetic acid], the melting point is > 250 °C (dec.). Consider `CCOC(=O)COc1ccc(C(=O)CN2Cc3cc(C(=N)N)ccc3C2=O)cc1OCC(=O)OCC` (as salt: salt) (hydrate or solvate) [Example 20, (4-{2-[5-Carbamimidoyl-1-oxo-1,3-dihydro-isoindol-2-yl]-acetyl}-2-ethoxycarbonylmethoxy-phenoxy)-acetic acid ethyl ester], for which the melting point was 168 to 169 °C. `CC(C)COC(=O)COc1ccc(C(=O)CN2Cc3cc(C(=N)NS(C)(=O)=O)ccc3C2=O)cc1` [Example 14, (4-{2-[5-(Imino-methanesulfonylamino-methyl)-1-oxo-1,3-dihydro-isoindol-2-yl]-acetyl}-phenoxy)-acetic acid isobutyl ester] had a melting point of 177 to 178 °C.

For the compound `N=C(N)c1ccc2c(c1)CN(CC(=O)N1CCC(OCC(=O)O)CC1)C2=O` (as salt: hydrochloride) (hydrate or solvate) [Example 73, (1-{2-[5-Carbamimidoyl-1-oxo-1,3-dihydro-isoindol-2-yl]-acetyl}-piperidin-4-yloxy)-acetic acid], the melting point fell in the range of 135 to 136 °C. For the compound `CCOC(=O)COc1ccc(C(=O)CN2Cc3cc(C(=N)NO)ccc3C2=O)c(O)c1CC` [Example 57, (2-Ethyl-3-hydroxy-4-{2-[5-(N-hydroxycarbamimidoyl)-1-oxo-1,3-dihydro-isoindol-2-yl]-acetyl}-phenoxy)-acetic acid ethyl ester], the melting point lay within 196 to 197 °C. Take `CCOC(=O)COc1c(SCC)cc(C(=O)CN2Cc3cc(C(=N)NO)ccc3C2=O)cc1SCC` [Example 37, (2,6-Bis-ethylsulfanyl-4-{2-[5-(N-hydroxycarbamimidoyl)-1-oxo-1,3-dihydro-isoindol-2-yl]-acetyl}-phenoxy)-acetic acid ethyl ester]: the melting point lay within 183 to 184 °C. For the compound `CCOC(=O)COc1ccc(C(=O)CN2Cc3cc(C(=N)N)ccc3C2=O)c(OCC(=O)OCC)c1` (as salt: salt) (hydrate or solvate) [Example 47, (4-{2-[5-Carbamimidoyl-1-oxo-1,3-dihydro-isoindol-2-yl]-acetyl}-3-ethoxycarbonylmethoxy-phenoxy)-acetic acid ethyl ester], the melting point lay within 186 to 188 °C. `COC(=O)NC(=N)c1ccc2c(c1)CN(CC(=O)c1ccc(OCC(=O)OCc3ccccc3)cc1)C2=O` (hydrate or solvate) [Example 18, (4-{2-[5-(Imino-methoxycarbonylamino-methyl)-1-oxo-1,3-dihydro-isoindol-2-yl]-acetyl}-phenoxy)-acetic acid benzyl ester] registered a melting point of 184 to 186 °C.

On to `CCOC(=O)COC1CCN(C(=O)CCN2Cc3cc(C(=N)NO)ccc3C2=O)CC1` [Example 69, (1-{3-[5-(N-Hydroxycarbamimidoyl)-1-oxo-1,3-dihydro-isoindol-2-yl]-propionyl}-piperidin-4-yloxy)-acetic acid ethyl ester], for which the melting point lay within 151 to 152 °C. Next, `CCOC(=O)COc1ccc(C(=O)CN2Cc3cc(C(=N)NO)ccc3C2=O)c(OCC)c1` [Example 75, (3-Ethoxy-4-{2-[5-(N-hydroxycarbamimidoyl)-1-oxo-1,3-dihydro-isoindol-2-yl]-acetyl}-phenoxy)-acetic acid ethyl ester]: 192 to 194 °C; `CCOC(=O)COc1ccc(C(=O)CN2Cc3cc(C(=N)NO)ccc3C2=O)cc1` (hydrate or solvate) [Example 4, (4-{2-[5-(N-Hydroxycarbamimidoyl)-1-oxo-1,3-dihydro-isoindol-2-yl]-acetyl}-phenoxy)-acetic acid ethyl ester]: 175 to 178 °C; `CCOC(=O)COc1ccc(C(=O)CN2Cc3cc(C(=N)NO)ccc3C2=O)cc1S(=O)(=O)CC` [Example 36, (2-Ethanesulfonyl-4-{2-[5-(N-hydroxycarbamimidoyl)-1-oxo-1,3-dihydro-isoindol-2-yl]-acetyl}-phenoxy)-acetic acid ethyl ester]: 196 to 197 °C.

`CCOC(=O)C(CCNC(=O)OCc1ccccc1)Oc1ccc(C(=O)CN2Cc3cc(C(=N)N)ccc3C2=O)cc1` (stereo not shown) (as salt: salt) [Example 27, 4-Benzyloxycarbonylamino-2-(4-{2-[5-carbamimidoyl-1-oxo-1,3-dihydro-isoindol-2-yl]-acetyl}-phenoxy)-butyric acid ethyl ester]: the melting point lay in the range of 164 to 165 °C.

Consider `N=C(N)c1ccc2c(c1)CN(CC(=O)c1ccc(OCC(=O)OC3CCN(C(=O)OCc4ccccc4)CC3)cc1)C2=O` (hydrate or solvate) [Example 26, 4-(2-{4-[2-(5-Carbamimidoyl-1-oxo-1,3-dihydro-isoindol-2-yl)-acetyl]-phenoxy}-acetoxy)-piperidine-1-carboxylic acid benzyl ester], for which the melting point lay within 180 to 181 °C. Compound `CCOC(=O)COc1ccc(C(=O)CN2Cc3cc(C(=N)N)ccc3C2=O)cc1Cl` (as salt: salt) [Example 30, (4-{2-[5-Carbamimidoyl-1-oxo-1,3-dihydro-isoindol-2-yl]-acetyl}-2-chloro-phenoxy)-acetic acid ethyl ester] came in with a melting point of 172 to 173 °C.

(Values after patent US7964628B2, “Fibrinogen receptor antagonists and their use” (Piramal Life Sciences Limited, priority 2003, dated 2011).)
